What was measured:
[1] = target: T1, type VI adenylyl cyclase (Homo sapiens, UniProt O43306); test: Adenylyl cyclase membrane assay, type VI (cAMP ELISA); assay type: biochemical, mouse; settings: cardiomyocyte membrane preparations from transgenic mice; forskolin 50 μM
T1 construct: from tissue; host or cells: heart (cardiomyocyte) membrane preparations from transgenic mice overproducing type VI adenylyl cyclase
Method: (§1) Compounds were assayed for their ability to attenuate cyclic AMP (cAMP) production in cardiomyocyte membrane preparations isolated from transgenic mice. Transgenic mice were separately bred to overproduce type V adenylyl cyclase, type VI adenylyl cyclase and type II adenylyl cyclase. cAMP levels were determined using a Cyclic AMP Competitive ELISA kit purchased from ThermoFischer Scientific (Cat# EMSCAMPL).
(§2) Buffer A (pH 8) was prepared comprising final concentrations of the following: 50 mM Tris, 1 mM EGTA, 1 mM EDTA, 1 mM DTT, 100 mM sucrose, 20 μg/mL TPCK (protease inhibitor), 20 μg/mL TLCK (protease inhibitor), 1 mM PMSF (protease inhibitor), 10 μg/mL leupeptin (protease inhibitor) and 10 μg/mL aprotinin (protease inhibitor).
(§3) Buffer B (pH 8) was prepared comprising final concentrations of the following: 50 mM Tris, 1 mM EDTA, 100 mM sucrose, 0.2 mM PMSF (protease inhibitor), 2 μg/mL leupeptin (protease inhibitor) and 2 μg/mL aprotinin (protease inhibitor).
Hearts were surgically excised from transgenic mice. Each isolated heart was treated with 3-4 mL of buffer A and cooled to 0 deg C. for 5 minutes. Treated hearts were homogenized for 10 seconds using a Polytron homogenizer cooled to 0 deg C. and set to speed 6. Homogenized hearts were centrifuged at 500×g at 4 deg C. for 10 minutes. Supernatants were transferred to ultracentrifuge tubes and centrifuged at 35,000 rpm at 4 deg C. for 40 minutes. Isolated pellets were combined with buffer B (500 μL) and sonicated to a suspension. Protein concentration was determined using a commercial Bradford assay kit. Membrane preparations were stored at −80 deg C. […]
(§4) A reaction mixture was pre-incubated at 30 deg C. for 5 minutes. […] The cAMP concentration of the supernatant was measured using a Cyclic AMP Competitive ELISA kit purchased from ThermoFischer Scientific.

[2] = target: T2, type V adenylyl cyclase (Homo sapiens, UniProt O95622); test: Adenylyl cyclase membrane assay, type V (cAMP ELISA); assay type: biochemical, mouse; settings: cardiomyocyte membrane preparations from transgenic mice; forskolin 50 μM
T2 construct: from tissue; host or cells: heart (cardiomyocyte) membrane preparations from transgenic mice overproducing type V adenylyl cyclase
Method: as §1, §2, §3
Hearts were surgically excised from transgenic mice. Each isolated heart was treated with 3-4 mL of buffer A and cooled to 0 deg C. for 5 minutes. Treated hearts were homogenized for 10 seconds using a Polytron homogenizer cooled to 0 deg C. and set to speed 6. Homogenized hearts were centrifuged at 500×g at 4 deg C. for 10 minutes. Supernatants were transferred to ultracentrifuge tubes and centrifuged at 35,000 rpm at 4 deg C. for 40 minutes. Isolated pellets were combined with buffer B (500 μL) and sonicated to a suspension. Protein concentration was determined using a commercial Bradford assay kit. Membrane preparations were stored at −80 deg C.
Buffer R (pH 8) was prepared comprising final concentrations in water of the following: HEPES (20 mM), magnesium chloride (5 mM), EDTA (0.5 mM), ATP (0.1 mM), phospho creatinine (1 mM), creatinine phosphokinase (8 units/mL), IBMX (200 μM), forskolin (50 μM) or control (DMSO in water).
Inhibitor solutions were prepared by dilution of stock solutions of inhibitors (10 mM in DMSO) to a final concentration of 100 μM in water. Serial dilutions with water were subsequently made in order to determine IC50 values.
Reaction mixtures were prepared comprising buffer R (10 μL), inhibitor or control (10 μL), and water (75 μL).
A reaction mixture was pre-incubated at 30 deg C. for 5 minutes. A membrane preparation (e.g. 5 μL for type V Adenylyl Cyclase comprising 2 μg of membrane protein per 5 μL of preparation) was added and the mixture was incubated at 30 deg C. for 15 minutes. The reaction was stopped by addition of 0.1 M hydrochloric acid (100 μL) and cooled to 0 deg C. The resulting mixture was incubated at 0 deg C. for 60 minutes. The cAMP concentration of the supernatant was measured using a Cyclic AMP Competitive ELISA kit purchased from ThermoFischer Scientific.

[3] = system: Mouse Ischemia and Reperfusion Model; test: Mouse ischemia and reperfusion model, infarct size; assay type: in vivo; settings: mice; 30 min CAO, 24 hr CAR; i.v. infusion 0.06 mg/kg delivered at CAR; vehicle 33%
Method: 3-4-month-old male CS7BL/6 mice purchased from Jack-son Laboratory were anesthetized by an injection of 2% 2,2,2-tribromomethanol ([…] i.p.; Aldrich Chemical, St. Louis, Mo.). The mice were then orally intubated and mechanically ventilated. The heart was accessed via a thoracotomy at the fourth intercostals space and 7-0 silk suture passed under the left anterior descending coronary artery (LAD) at the point where it emerged from under the left atrial flap. Myocardial ischemia was achieved by occluding the LAD against a 22-gauge J-shaped stainless-steel probe and verified by visually noting the regional akinesis and blanching of the left ventricle. The chest was closed in layers, with the long end of the probe remaining outside the chest wall, allowing the animals to be removed from the ventilator. After 30 min. of ischemia, reperfusion was initiated by carefully pulling the probe out from the ligature and then removing it from the chest cavity. Following the surgical procedure, the mice were allowed to recover on a warmed surface, with supplemental oxygen delivered from a nose cone. I/R were verified by three lead electrocardiograms, which were obtained preoperatively, at the end of the ischemic interval and immediately after the initiation of reperfusion. Mice fully recovered from the surgical procedure were returned to standard animal housing conditions. […]

[4] = system: H9c2(2-1) myoblast cell line; test: Adenylyl cyclase cell-based assay, isoproterenol-stimulated cAMP; settings: Rattus norvegicus; H9c2 cells, isoproterenol 5 mM
Method: (§5) H9c2(2-1) myoblast cell line was obtained from ATCC (CRL-1446). Cells (10^5 cells/mL) were seeded in 24-well plates at 5×10^4 cells per well. Cells were allowed to attach over 24 hours. The cells were then washed with PBS. Serum-free DMEM supplemented with 20 mM HEPES and 0.5 mM IBMX was added and the cells were incubated at 37 deg C. for 20 minutes. An Adenylyl Cyclase inhibitor (0.001-100 μM in DMSO/water with DMSO concentration <1%) was added and the mixture was incubated at 37 deg C. for 10 minutes. Forskolin (50 μM in DMSO/water with DMSO concentration <1%) was added and the mixture was incubated at 37 deg C. for 10 minutes. As an alternative to forskolin, isoproterenol (5 mM in DMSO/water with DMSO concentration <1%) was added and the mixture was incubated at 37 deg C. for 15 minutes. The media was removed and the cells were lysed by addition of 0.1 M hydrochloric acid (200 μL) 0 deg C. Lysed mixtures were maintained at 0 deg C. for 10-20 minutes and the plates were then centrifuged at 3,000×g for 5 minutes. cAMP levels in the supernatant were measured using the ThermoScientific cAMP competitive ELISA (EMSCAMPL) kit with samples acetylated in glass or polypropylene tubes.

[5] = system: H9c2(2-1) myoblast cell line; test: Adenylyl cyclase cell-based assay, forskolin-stimulated cAMP; settings: Rattus norvegicus; H9c2 cells, forskolin 50 μM
Method: as §5

[6] = target: T3, type II adenylyl cyclase (Homo sapiens, UniProt Q08462); test: Adenylyl cyclase membrane assay, type II (cAMP ELISA); assay type: biochemical, mouse; settings: cardiomyocyte membrane preparations from transgenic mice; forskolin 50 μM
T3 construct: from tissue; host or cells: heart (cardiomyocyte) membrane preparations from transgenic mice overproducing type II adenylyl cyclase
Method: as §1, §2, §3
Hearts were surgically excised from transgenic mice. Each isolated heart was treated with 3-4 mL of buffer A and cooled to 0 deg C. for 5 minutes. […] Protein concentration was determined using a commercial Bradford assay kit. […]
as §4

T2 sequence (O95622 whole entry): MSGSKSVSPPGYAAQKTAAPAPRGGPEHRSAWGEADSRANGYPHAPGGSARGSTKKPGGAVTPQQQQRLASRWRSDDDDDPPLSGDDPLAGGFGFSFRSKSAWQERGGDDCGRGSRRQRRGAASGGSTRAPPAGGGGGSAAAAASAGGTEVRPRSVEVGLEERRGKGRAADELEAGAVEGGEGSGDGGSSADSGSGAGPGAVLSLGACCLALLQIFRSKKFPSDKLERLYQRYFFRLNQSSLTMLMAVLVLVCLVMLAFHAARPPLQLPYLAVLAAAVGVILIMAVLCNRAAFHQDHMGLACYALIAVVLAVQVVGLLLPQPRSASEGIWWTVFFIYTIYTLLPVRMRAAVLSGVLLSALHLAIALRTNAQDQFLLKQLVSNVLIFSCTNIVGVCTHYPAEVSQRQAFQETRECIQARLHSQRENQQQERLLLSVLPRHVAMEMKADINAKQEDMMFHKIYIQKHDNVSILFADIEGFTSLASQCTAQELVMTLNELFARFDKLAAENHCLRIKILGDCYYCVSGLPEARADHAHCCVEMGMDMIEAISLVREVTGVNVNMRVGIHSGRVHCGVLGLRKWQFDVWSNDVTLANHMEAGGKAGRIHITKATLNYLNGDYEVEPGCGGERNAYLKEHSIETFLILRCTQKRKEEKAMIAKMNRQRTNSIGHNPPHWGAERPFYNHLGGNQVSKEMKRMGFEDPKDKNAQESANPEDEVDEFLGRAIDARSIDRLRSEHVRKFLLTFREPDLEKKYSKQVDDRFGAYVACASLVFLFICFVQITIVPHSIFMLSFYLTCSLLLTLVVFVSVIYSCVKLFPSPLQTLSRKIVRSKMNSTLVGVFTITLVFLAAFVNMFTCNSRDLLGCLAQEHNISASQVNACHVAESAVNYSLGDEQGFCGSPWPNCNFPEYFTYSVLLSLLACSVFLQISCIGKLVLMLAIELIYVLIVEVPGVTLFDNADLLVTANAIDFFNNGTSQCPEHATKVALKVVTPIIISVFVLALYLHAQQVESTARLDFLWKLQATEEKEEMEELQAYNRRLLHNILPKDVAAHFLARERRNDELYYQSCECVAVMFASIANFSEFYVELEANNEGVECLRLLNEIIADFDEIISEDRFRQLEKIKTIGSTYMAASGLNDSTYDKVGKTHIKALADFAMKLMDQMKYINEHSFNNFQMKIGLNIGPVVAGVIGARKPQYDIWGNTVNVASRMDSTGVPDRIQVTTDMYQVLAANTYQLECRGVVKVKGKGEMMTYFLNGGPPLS
T1 sequence (O43306 whole entry): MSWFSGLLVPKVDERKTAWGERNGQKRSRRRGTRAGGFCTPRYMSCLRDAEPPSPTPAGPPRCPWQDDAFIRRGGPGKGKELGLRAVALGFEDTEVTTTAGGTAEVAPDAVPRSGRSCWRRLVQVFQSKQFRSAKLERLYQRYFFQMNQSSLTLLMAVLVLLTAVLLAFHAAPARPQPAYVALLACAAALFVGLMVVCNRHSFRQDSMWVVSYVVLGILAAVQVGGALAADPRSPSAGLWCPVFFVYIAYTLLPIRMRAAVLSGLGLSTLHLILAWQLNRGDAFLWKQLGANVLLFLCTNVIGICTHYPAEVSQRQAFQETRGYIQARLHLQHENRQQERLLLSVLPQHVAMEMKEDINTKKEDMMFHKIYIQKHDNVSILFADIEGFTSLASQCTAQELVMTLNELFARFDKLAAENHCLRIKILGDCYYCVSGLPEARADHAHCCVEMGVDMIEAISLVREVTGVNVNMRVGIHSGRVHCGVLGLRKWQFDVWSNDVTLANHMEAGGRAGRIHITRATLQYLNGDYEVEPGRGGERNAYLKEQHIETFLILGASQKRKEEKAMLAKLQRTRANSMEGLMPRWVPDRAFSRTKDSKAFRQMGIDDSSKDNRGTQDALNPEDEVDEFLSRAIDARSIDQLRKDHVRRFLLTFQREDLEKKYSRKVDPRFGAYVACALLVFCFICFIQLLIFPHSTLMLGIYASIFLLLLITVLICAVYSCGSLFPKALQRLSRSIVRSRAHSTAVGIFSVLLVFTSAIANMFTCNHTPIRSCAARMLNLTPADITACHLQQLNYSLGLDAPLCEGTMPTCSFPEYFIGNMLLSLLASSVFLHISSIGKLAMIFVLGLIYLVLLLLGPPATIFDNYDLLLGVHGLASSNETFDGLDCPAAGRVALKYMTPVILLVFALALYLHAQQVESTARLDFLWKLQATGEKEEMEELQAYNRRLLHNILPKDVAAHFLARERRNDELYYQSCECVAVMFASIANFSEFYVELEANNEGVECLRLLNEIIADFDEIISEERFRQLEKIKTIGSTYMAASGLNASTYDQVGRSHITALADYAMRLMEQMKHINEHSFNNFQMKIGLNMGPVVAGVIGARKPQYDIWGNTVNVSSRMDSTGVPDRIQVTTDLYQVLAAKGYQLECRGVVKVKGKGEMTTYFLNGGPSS
T3 sequence (Q08462 whole entry): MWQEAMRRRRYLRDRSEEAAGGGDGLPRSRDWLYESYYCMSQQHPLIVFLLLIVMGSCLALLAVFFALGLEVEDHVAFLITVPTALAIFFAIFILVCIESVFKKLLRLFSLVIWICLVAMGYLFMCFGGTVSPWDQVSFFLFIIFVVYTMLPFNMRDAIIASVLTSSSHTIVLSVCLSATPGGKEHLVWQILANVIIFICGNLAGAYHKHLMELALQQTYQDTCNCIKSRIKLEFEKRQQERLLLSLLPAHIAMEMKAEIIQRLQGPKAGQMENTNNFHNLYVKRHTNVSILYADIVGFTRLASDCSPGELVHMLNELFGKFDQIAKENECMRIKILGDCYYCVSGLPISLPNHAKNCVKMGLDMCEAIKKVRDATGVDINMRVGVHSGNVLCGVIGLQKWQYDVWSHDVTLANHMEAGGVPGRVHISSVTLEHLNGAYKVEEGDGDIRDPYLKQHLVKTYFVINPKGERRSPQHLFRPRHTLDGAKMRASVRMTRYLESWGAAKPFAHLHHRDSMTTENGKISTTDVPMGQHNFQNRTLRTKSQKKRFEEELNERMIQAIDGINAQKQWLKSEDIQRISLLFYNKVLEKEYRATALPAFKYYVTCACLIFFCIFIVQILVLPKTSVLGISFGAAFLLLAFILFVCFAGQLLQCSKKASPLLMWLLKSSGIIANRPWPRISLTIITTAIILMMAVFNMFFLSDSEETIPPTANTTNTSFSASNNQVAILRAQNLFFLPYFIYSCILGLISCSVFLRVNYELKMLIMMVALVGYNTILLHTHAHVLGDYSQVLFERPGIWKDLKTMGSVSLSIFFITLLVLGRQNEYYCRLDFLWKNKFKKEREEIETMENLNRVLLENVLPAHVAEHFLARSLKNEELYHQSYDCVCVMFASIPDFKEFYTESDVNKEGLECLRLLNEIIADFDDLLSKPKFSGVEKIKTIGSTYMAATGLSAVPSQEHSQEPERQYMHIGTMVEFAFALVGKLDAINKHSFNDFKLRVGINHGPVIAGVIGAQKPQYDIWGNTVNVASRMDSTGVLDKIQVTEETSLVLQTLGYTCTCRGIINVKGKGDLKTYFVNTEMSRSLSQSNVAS

SMILES | IC50 [2] [µM] | also measured
Nc1ncnc2c1ncn2[C@@H]1CC[C@@H](C(=O)NO)C1 [Compound 10, (1R,3R)-3-(6-amino-9H-purin-9-yl)-N-hydroxycyclopentanecarboxamide] | 0.15 | IC50 [1]: 250 nM; left ventricle (LV) infarct size [3]: 20%; IC50 [4]: 27000 nM; IC50 [5]: 9.63 µM
Nc1nccc2c1ncn2[C@@H]1CC[C@@H](C(=O)O)C1 [Compound 10a, (1R,3R)-3-(4-amino-1H-imidazo[4,5-c]pyridin-1-yl)cyclopentanecarboxylic acid] | > 10 | 
Nc1nccc2c1ncn2[C@@H]1CC[C@@H](C(=O)NO)C1 [Compound 10b, (1R,3R)-3-(4-amino-1H-imidazo[4,5-c]pyridin-1-yl)-N-hydroxycyclopentanecarboxamide] | 0.29 | IC50 [5]: 8.5 µM
Nc1ncnc2c1ccn2[C@@H]1CC[C@@H](C(=O)O)C1 [Compound 10c, (1R,3R)-3-(4-amino-7H-pyrrolo[2,3-d]pyrimidin-7-yl)cyclopentanecarboxylic acid] | > 100 | 
Nc1ncnc2c1ccn2[C@@H]1CC[C@@H](C(=O)NO)C1 [Compound 10d, (1R,3R)-3-(4-amino-7H-pyrrolo[2,3-d]pyrimidin-7-yl)-N-hydroxycyclopentanecarboxamide] | 0.98 | 
Nc1nccc2c1ccn2[C@@H]1CC[C@@H](C(=O)O)C1 [Compound 10e, (1R,3R)-3-(4-amino-1H-pyrrolo[3,2-c]pyridin-1-yl)cyclopentanecarboxylic acid] | > 10 | 
Nc1ncnc2c1ncn2[C@@H]1C[C@H](CO)[C@@H](C(=O)O)C1 [Compound 10g, (1S,2S,4R)-4-(6-amino-9H-purin-9-yl)-2-(hydroxymethyl)cyclopentanecarboxylic acid] | > 100 | 
Nc1ncnc2c1ncn2[C@@H]1C[C@H](CO)[C@@H](C(=O)NO)C1 [Compound 10h, (1S,2S,4R)-4-(6-amino-9H-purin-9-yl)-N-hydroxy-2-(hydroxymethyl)cyclopentanecarboxamide] | 1.9 | IC50 [5]: 18 µM
Nc1ncnc2c1ncn2[C@@H]1C[C@@H](CO)[C@@H](C(=O)NO)C1 [Compound 10i, (1S,2R,4R)-4-(6-amino-9H-purin-9-yl)-N-hydroxy-2-(hydroxymethyl)cyclopentanecarboxamide] | 3.1 | 
Nc1nc(F)nc2c1ncn2[C@@H]1CC[C@@H](C(=O)NO)C1 [Compound 10j, (1R,3R)-3-(6-amino-2-fluoro-9H-purin-9-yl)-N-hydroxycyclopentanecarboxamide] | 0.08 | IC50 [1]: 210 nM; IC50 [6]: 5.58 µM; IC50 [4]: 2450 nM; IC50 [5]: 2.32 µM
Cc1nc(N)c2ncn([C@@H]3CC[C@@H](C(=O)NO)C3)c2n1 [Compound 10k, (1R,3R)-3-(6-amino-2-methyl-9H-purin-9-yl)-N-hydroxycyclopentanecarboxamide] | 4.89 | 
Nc1nc(C(F)(F)F)nc2c1ncn2[C@@H]1CC[C@@H](C(=O)NO)C1 [Compound 10l, (1R,3R)-3-(6-amino-2-(trifluoromethyl)-9H-purin-9-yl)-N-hydroxycyclopentanecarboxamide] | 6.45 | 
Nc1nc(N)c2ncn([C@@H]3CC[C@@H](C(=O)NO)C3)c2n1 [Compound 10m, (1R,3R)-3-(2,6-diamino-9H-purin-9-yl)-N-hydroxycyclopentanecarboxamide] | 3.5 | 
Nc1nc(O)nc2c1ncn2[C@@H]1CC[C@@H](C(=O)NO)C1 [Compound 10n, (1R,3R)-3-(6-amino-2-hydroxy-9H-purin-9-yl)-N-hydroxycyclopentanecarboxamide] | > 300 | 
Cc1nc2c(N)ncnc2n1[C@@H]1CC[C@@H](C(=O)NO)C1 [Compound 10o, (1R,3R)-3-(6-amino-8-methyl-9H-purin-9-yl)-N-hydroxycyclopentanecarboxamide] | > 300 | 
Nc1ncnc2c1nc(C(F)(F)F)n2[C@@H]1CC[C@@H](C(=O)NO)C1 [Compound 10p, (1R,3R)-3-(6-amino-8-(trifluoromethyl)-9H-purin-9-yl)-N-hydroxycyclopentanecarboxamide] | > 300 | 
Nc1ncnc2c1nc(N)n2[C@@H]1CC[C@@H](C(=O)NO)C1 [Compound 10q, (1R,3R)-3-(6,8-diamino-9H-purin-9-yl)-N-hydroxycyclopentanecarboxamide] | > 300 | 
Nc1ncnc2c1nc(O)n2[C@@H]1CC[C@@H](C(=O)NO)C1 [Compound 10r, (1R,3R)-3-(6-amino-8-hydroxy-9H-purin-9-yl)-N-hydroxycyclopentanecarboxamide] | > 300 | 
C[C@H]1C[C@@H](n2cnc3c(N)ncnc32)C[C@@H]1C(=O)NO [Compound 10s, (1S,2S,4R)-4-(6-amino-9H-purin-9-yl)-N-hydroxy-2-methylcyclopentanecarboxamide] | 0.51 | 
C[C@H]1C[C@@H](n2cnc3c(N)nc(F)nc32)C[C@@H]1C(=O)NO [Compound 10t] | 0.13 | 
Nc1nc(F)cc2c1ncn2[C@@H]1CC[C@@H](C(=O)NO)C1 [Compound 10v, (1R,3R)-3-(4-amino-6-fluoro-1H-imidazo[4,5-c]pyridin-1-yl)-N-hydroxycyclopentanecarboxamide] | 0.03 | IC50 [1]: 30 nM; IC50 [6]: 1.11 µM; IC50 [4]: 1890 nM; IC50 [5]: 1.14 µM
Nc1ncnc2c1ncn2[C@@H]1O[C@H](CO)[C@@H](O)[C@H]1O [adenosine, Adenosine, reference compound] |  | left ventricle (LV) infarct size [3]: 38%

From patent publication US10081633B2, “Adenylyl cyclase inhibitors, pharmaceutical compositions and method of use thereof” (priority 2016, dated 2018)
